{"source": "ChEMBL document CHEMBL5537159", "about": "“Discovery and SAR of JTE-151: A Novel RORγ Inhibitor for Clinical Development” (J Med Chem, 2024)", "key": {"[1]": {"molecular_target": "T1, Nuclear receptor ROR-gamma (Homo sapiens, UniProt P51449)", "T1 sequence (P51449 whole entry)": "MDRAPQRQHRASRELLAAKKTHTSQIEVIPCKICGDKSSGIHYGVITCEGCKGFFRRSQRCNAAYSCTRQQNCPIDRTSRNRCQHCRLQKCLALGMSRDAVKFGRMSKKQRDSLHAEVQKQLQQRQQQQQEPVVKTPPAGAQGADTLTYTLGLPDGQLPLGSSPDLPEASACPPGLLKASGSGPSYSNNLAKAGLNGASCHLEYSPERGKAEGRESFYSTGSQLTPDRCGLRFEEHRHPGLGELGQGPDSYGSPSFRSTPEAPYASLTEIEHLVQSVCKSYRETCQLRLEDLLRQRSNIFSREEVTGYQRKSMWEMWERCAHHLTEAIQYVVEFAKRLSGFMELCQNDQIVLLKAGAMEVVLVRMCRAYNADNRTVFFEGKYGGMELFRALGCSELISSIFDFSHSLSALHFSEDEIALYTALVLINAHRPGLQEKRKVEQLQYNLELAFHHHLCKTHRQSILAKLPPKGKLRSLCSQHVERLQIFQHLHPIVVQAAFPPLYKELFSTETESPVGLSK", "assay": "Inhibition of GAL4 DNA-binding domain fused RORgamma (unknown origin) transfected in CHO-K1 cells incubated for 2 days by luciferase assay", "assay_type": "cell-based"}, "[2]": {"assay": "Metabolic stability in human liver microsomes assessed as compound remaining at 5 umol/L measured after 60 mins by UPLC/MS analysis", "assay_type": "ADME, Microsome", "conditions": "dose 5 µmol/L, read-out: Stability"}, "[3]": {"assay": "AUCinfinity in CD(SD) rat at 10 mg/kg, po administered as single dose and measured after 24 hrs", "assay_type": "ADME, organism-based", "conditions": "in vivo"}, "[4]": {"assay": "MRT in C57BL/6J mouse at 3 mg/kg, po administered as single dose and measured after 24 hrs", "assay_type": "ADME, organism-based", "conditions": "in vivo"}, "[5]": {"assay": "Elimination half life in Beagle dog at 1 mg/kg, iv administered as single dose and measured after 24 hrs", "assay_type": "ADME, organism-based, Canis lupus familiaris", "conditions": "in vivo, read-out: beta t1/2 (converted)"}, "[6]": {"assay": "MRT in Beagle dog at 3 mg/kg, po administered as single dose and measured after 24 hrs", "assay_type": "ADME, organism-based, Canis lupus familiaris", "conditions": "in vivo"}, "[7]": {"assay": "Oral bioavailability in Beagle dog at 3 mg/kg administered as single dose and measured after 24 hrs", "assay_type": "ADME, organism-based, Canis lupus familiaris", "conditions": "in vivo"}, "[8]": {"assay": "Total body clearance in cynomolgus monkey at 1 mg/kg, iv administered as single dose and measured after 24 hrs", "assay_type": "ADME, organism-based, Macaca fascicularis", "conditions": "in vivo"}, "[9]": {"assay": "Selectivity ratio of antagonist activity at human RORalpha to inhibition of RORgamma (unknown origin)"}, "[10]": {"assay": "Selectivity ratio of antagonist activity at mouse GR to inhibition of RORgamma (unknown origin)"}, "[11]": {"assay": "Selectivity ratio of antagonist activity at human VDR to inhibition of RORgamma (unknown origin)"}, "[12]": {"assay": "Selectivity ratio of antagonist activity at mouse LXRalpha to inhibition of RORgamma (unknown origin)"}, "[13]": {"assay": "Selectivity ratio of agonist activity at human PR to inhibition of RORgamma (unknown origin)"}, "[14]": {"assay": "Selectivity ratio of agonist activity at human PPARdelta to inhibition of RORgamma (unknown origin)"}, "[15]": {"assay": "Selectivity ratio of agonist activity at human RXRalpha to inhibition of RORgamma (unknown origin)"}, "Histamine H2 receptor": {"molecular_target": "Histamine H2 receptor (Homo sapiens, UniProt P25021)", "sequence (P25021 whole entry)": "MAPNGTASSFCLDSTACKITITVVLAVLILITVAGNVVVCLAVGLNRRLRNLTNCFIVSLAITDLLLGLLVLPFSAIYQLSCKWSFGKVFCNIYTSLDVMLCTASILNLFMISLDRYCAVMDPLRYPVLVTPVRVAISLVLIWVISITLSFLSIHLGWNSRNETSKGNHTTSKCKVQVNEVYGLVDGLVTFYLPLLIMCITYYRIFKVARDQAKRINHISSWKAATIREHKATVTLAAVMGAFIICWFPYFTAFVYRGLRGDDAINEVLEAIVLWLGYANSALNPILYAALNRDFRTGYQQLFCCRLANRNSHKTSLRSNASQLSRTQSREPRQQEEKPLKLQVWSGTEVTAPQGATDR", "assay": "Inhibition of human histamine H2 receptor"}, "[16]": {"assay": "Inhibition of rat K+ ATP channel"}, "Cytochrome P450 2C8": {"molecular_target": "Cytochrome P450 2C8 (Homo sapiens, UniProt P10632)", "sequence (P10632 whole entry)": "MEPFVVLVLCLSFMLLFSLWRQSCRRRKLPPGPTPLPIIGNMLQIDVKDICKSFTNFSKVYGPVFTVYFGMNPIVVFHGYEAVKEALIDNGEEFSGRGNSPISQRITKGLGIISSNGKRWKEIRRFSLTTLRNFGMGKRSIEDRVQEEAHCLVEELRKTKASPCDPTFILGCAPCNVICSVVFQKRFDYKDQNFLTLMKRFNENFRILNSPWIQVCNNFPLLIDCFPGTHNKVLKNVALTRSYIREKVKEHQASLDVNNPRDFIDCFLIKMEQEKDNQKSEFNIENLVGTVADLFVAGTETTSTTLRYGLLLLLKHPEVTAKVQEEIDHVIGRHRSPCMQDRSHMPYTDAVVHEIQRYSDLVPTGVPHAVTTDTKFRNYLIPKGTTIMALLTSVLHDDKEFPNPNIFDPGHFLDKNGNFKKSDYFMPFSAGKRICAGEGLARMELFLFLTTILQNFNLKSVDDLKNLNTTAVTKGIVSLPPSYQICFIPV", "assay": "Inhibition of CYP2C8 in human liver microsomes", "assay_type": "ADME, Microsome"}, "Cytochrome P450 1A2": {"molecular_target": "Cytochrome P450 1A2 (Homo sapiens, UniProt P05177)", "sequence (P05177 whole entry)": "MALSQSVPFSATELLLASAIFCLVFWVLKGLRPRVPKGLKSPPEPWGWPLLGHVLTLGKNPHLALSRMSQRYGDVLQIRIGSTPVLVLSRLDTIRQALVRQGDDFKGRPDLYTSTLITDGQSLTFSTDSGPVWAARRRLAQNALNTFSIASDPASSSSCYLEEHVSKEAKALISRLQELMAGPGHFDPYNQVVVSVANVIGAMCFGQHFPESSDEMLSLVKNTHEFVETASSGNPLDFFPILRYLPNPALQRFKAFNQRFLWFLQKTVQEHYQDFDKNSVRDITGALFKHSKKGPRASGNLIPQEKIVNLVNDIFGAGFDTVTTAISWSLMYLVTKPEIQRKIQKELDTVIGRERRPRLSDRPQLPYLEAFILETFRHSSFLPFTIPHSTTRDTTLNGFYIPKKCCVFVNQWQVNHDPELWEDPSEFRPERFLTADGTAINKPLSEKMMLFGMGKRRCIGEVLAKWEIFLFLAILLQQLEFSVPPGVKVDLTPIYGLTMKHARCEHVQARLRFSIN", "assay": "Inhibition of CYP1A2 in human liver microsomes", "assay_type": "ADME, Microsome"}, "Cytochrome P450 2D6": {"molecular_target": "Cytochrome P450 2D6 (Homo sapiens, UniProt P10635)", "sequence (P10635 whole entry)": "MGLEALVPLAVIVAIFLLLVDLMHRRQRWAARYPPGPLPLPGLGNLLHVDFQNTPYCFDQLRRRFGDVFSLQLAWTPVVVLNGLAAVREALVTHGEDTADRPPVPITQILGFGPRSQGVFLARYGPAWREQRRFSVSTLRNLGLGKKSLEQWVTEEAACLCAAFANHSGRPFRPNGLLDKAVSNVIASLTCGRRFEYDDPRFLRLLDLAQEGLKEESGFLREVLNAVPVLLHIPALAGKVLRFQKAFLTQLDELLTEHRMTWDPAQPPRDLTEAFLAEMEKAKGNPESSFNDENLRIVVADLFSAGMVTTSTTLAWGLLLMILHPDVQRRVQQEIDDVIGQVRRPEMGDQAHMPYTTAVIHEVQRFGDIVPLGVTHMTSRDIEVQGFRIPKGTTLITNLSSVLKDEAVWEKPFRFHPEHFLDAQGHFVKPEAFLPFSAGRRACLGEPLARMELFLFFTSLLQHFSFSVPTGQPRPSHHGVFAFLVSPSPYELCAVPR", "assay": "Inhibition of CYP2D6 in human liver microsomes", "assay_type": "ADME, Microsome"}, "Mus musculus": {"system": "Mus musculus", "assay": "Anti-inflammatory activity in complete Freund's adjuvant/MOG (35 to 55 residues)/pertussis toxin-induced experimental autoimmune encephalomyelitis C57BL/6 mouse model assessed as reduction in Th17 cell differentiation by measuring reduction in number of Th17 cells in spinal cords at 3 to 10 mg/kg, po administered once daily for 17 days and measured on day 18 by flow cytometry analysis", "assay_type": "functional, organism-based", "conditions": "dose 3-10 mg/kg, time 18.0 day"}, "[17]": {"molecular_target": "Voltage-gated inwardly rectifying potassium channel KCNH2 (Homo sapiens, UniProt Q12809)", "sequence (Q12809 whole entry)": "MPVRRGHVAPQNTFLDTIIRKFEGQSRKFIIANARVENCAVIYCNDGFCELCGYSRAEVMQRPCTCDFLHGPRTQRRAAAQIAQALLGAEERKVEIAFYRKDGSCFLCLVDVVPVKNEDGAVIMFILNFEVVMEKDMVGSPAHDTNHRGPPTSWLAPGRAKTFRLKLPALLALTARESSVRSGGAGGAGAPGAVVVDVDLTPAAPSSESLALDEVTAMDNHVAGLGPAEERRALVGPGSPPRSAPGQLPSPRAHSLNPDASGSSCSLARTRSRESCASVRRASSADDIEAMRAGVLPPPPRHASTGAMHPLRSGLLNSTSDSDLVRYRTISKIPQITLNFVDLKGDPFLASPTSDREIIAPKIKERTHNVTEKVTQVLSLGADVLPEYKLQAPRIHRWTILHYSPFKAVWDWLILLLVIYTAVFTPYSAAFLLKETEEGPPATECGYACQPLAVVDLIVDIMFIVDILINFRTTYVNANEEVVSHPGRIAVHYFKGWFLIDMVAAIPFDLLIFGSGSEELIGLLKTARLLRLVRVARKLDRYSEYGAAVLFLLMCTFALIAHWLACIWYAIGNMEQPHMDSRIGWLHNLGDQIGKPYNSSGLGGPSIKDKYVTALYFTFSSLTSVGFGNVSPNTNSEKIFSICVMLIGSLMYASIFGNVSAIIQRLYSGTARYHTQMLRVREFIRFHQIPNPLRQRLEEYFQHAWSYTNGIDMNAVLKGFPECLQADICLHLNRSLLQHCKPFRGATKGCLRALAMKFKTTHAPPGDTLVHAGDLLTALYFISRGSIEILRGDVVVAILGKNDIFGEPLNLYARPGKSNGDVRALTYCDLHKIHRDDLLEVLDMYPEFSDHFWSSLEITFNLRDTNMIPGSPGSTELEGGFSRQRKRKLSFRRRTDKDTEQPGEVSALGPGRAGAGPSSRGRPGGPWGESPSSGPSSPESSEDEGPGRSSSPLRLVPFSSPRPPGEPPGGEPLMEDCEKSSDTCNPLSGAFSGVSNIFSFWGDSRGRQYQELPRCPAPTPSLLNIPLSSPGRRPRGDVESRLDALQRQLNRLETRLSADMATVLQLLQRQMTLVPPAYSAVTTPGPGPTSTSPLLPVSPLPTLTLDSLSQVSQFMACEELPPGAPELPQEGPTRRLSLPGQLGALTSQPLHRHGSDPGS", "assay": "Inhibition of hERG transfected in HEK293 cells by whole cell patch-clamp method", "assay_type": "toxicity, cell-based"}, "[18]": {"assay": "Genotoxicity in Salmonella typhimurium TA98 at 23 to 750 ug in absence of S9 fraction by bacterial reverse mutation test", "assay_type": "toxicity, Salmonella enterica subsp. enterica serovar Typhimurium", "conditions": "in vivo; dose 23-750 µg"}, "[19]": {"assay": "Genotoxicity in Salmonella typhimurium TA1537 at 47 to 1500 ug in presence of S9 fraction by bacterial reverse mutation test", "assay_type": "toxicity, subcellular, Salmonella enterica subsp. enterica serovar Typhimurium", "conditions": "dose 47-1500 µg"}, "[20]": {"assay": "Toxicity in CHL cells assessed as chromosomal aberration at 120 to 140 ug/ml incubated for 6 hrs in presence of S9 fraction", "assay_type": "subcellular, Cricetulus griseus", "conditions": "chinese hamster, s9, 6 h, dose 120-140 µg/ml"}, "[21]": {"assay": "Toxicity in CHL cells assessed as chromosomal aberration at 30 to 50 ug/ml incubated for 24 hrs in absence of S9 fraction", "assay_type": "cell-based, Cricetulus griseus", "conditions": "chinese hamster, dose 30-50 µg/ml"}, "[22]": {"assay": "Cmax in human at 100 […], po administered as single dose and measured upto 144 hrs", "assay_type": "ADME, organism-based", "conditions": "in vivo"}, "[23]": {"assay": "Cmax in human at 600 […], po administered as single dose and measured upto 144 hrs", "assay_type": "ADME, organism-based", "conditions": "in vivo"}, "[24]": {"assay": "Cmax in human at 1000 […], po administered as single dose and measured upto 144 hrs", "assay_type": "ADME, organism-based", "conditions": "in vivo"}, "[25]": {"assay": "Tmax in human at 30 […], po administered as single dose and measured upto 144 hrs", "assay_type": "ADME, organism-based", "conditions": "in vivo"}, "[26]": {"assay": "Tmax in human at 200 […], po administered as single dose and measured upto 144 hrs", "assay_type": "ADME, organism-based", "conditions": "in vivo"}, "[27]": {"assay": "Tmax in human at 1600 […], po administered as single dose and measured upto 144 hrs", "assay_type": "ADME, organism-based", "conditions": "in vivo"}, "[28]": {"assay": "AUClast in human at 1600 mg/kg, po administered as single dose and measured upto 144 hrs", "assay_type": "ADME, organism-based", "conditions": "in vivo"}, "[29]": {"assay": "Elimination half life in human at 30 mg/kg, po administered as single dose and measured upto 144 hrs", "assay_type": "ADME, organism-based", "conditions": "in vivo, read-out: beta t1/2 (converted)"}, "[30]": {"assay": "Elimination half life in human at 60 mg/kg, po administered as single dose and measured upto 144 hrs", "assay_type": "ADME, organism-based", "conditions": "in vivo, read-out: beta t1/2 (converted)"}, "[31]": {"assay": "Elimination half life in human at 100 […], po administered as single dose and measured upto 144 hrs", "assay_type": "ADME, organism-based", "conditions": "in vivo, read-out: beta t1/2 (converted)"}, "[32]": {"assay": "Elimination half life in human at 400 mg/kg, po administered as single dose and measured upto 144 hrs", "assay_type": "ADME, organism-based", "conditions": "in vivo, read-out: beta t1/2 (converted)"}, "[33]": {"assay": "Elimination half life in human at 1000 mg/kg, po administered as single dose and measured upto 144 hrs", "assay_type": "ADME, organism-based", "conditions": "in vivo, read-out: beta t1/2 (converted)"}, "[34]": {"assay": "Toxicity in Beagle dog assessed as development-limiting toxicity at 30 to 100 mg/kg, po administered once daily and measured on day 1,14 and 28", "assay_type": "organism-based, Canis lupus familiaris", "conditions": "in vivo, 672 h, dose 30-100 mg/kg, time 28 day"}}, "note": "Calls of active or inactive are those of the source. The calls are words filed in the database; no cut-off is given here."}
{"smiles": "Cc1ccc(NC(=O)C[C@H](CCC(=O)O)c2noc([C@H]3C[C@@H](CC(C)(C)C)C3)c2C2CC2)c(Cl)c1", "values": [{"measurement": "EC50", "setting": "[1]", "value": 0.013, "unit": "µM"}, {"measurement": "remaining at 1 h, 5 µM", "setting": "[2]", "value": 73, "unit": "%"}, {"measurement": "AUC(0-inf)", "setting": "[3]", "value": 191, "unit": "µM·h"}, {"measurement": "MRT", "setting": "[4]", "value": 5.8, "unit": "h"}, {"measurement": "half-life", "setting": "[5]", "value": 5.5, "unit": "h"}, {"measurement": "MRT", "setting": "[6]", "value": 6.6, "unit": "h"}, {"measurement": "bioavailability", "setting": "[7]", "value": 64, "unit": "%"}, {"measurement": "clearance", "setting": "[8]", "value": 3.17, "unit": "mL/min/kg"}, {"measurement": "Selectivity ratio", "setting": "[9]", "value": "> 100"}, {"measurement": "Selectivity ratio", "setting": "[10]", "value": "> 100"}, {"measurement": "Selectivity ratio", "setting": "[11]", "value": "> 100"}, {"measurement": "Selectivity ratio", "setting": "[12]", "value": "> 100"}, {"measurement": "Selectivity ratio", "setting": "[13]", "value": "> 100"}, {"measurement": "Selectivity ratio", "setting": "[14]", "value": "> 100"}, {"measurement": "Selectivity ratio", "setting": "[15]", "value": "> 100"}, {"measurement": "IC50", "setting": "Histamine H2 receptor", "value": "> 10", "unit": "µM"}, {"measurement": "IC50", "setting": "[16]", "value": "> 10", "unit": "µM"}, {"measurement": "IC50", "setting": "Cytochrome P450 2C8", "value": 6.8, "unit": "µM"}, {"measurement": "IC50", "setting": "Cytochrome P450 1A2", "value": "> 10", "unit": "µM"}, {"measurement": "IC50", "setting": "Cytochrome P450 2D6", "value": "> 10", "unit": "µM"}, {"measurement": "Activity", "setting": "Mus musculus", "value": "Active"}, {"measurement": "IC50", "setting": "[17]", "value": 7.4, "unit": "µM"}, {"measurement": "Activity", "setting": "[18]", "value": "Non-Toxic"}, {"measurement": "Activity", "setting": "[19]", "value": "Non-Toxic"}, {"measurement": "Activity", "setting": "[20]", "value": "Non-Toxic"}, {"measurement": "Activity", "setting": "[21]", "value": "Non-Toxic"}, {"measurement": "Cmax", "setting": "[22]", "value": 3810, "unit": "ng/mL"}, {"measurement": "Cmax", "setting": "[23]", "value": 26400, "unit": "ng/mL"}, {"measurement": "Cmax", "setting": "[24]", "value": 38100, "unit": "ng/mL"}, {"measurement": "Tmax", "setting": "[25]", "value": 2.77, "unit": "h"}, {"measurement": "Tmax", "setting": "[26]", "value": 3.25, "unit": "h"}, {"measurement": "Tmax", "setting": "[27]", "value": 3.54, "unit": "h"}, {"measurement": "AUC(0-t) at 144 h", "setting": "[28]", "value": 371, "unit": "µg·h/mL"}, {"measurement": "half-life", "setting": "[29]", "value": 5.63, "unit": "h"}, {"measurement": "half-life", "setting": "[30]", "value": 5.49, "unit": "h"}, {"measurement": "half-life", "setting": "[31]", "value": 13.2, "unit": "h"}, {"measurement": "half-life", "setting": "[32]", "value": 7.42, "unit": "h"}, {"measurement": "half-life", "setting": "[33]", "value": 7.91, "unit": "h"}, {"measurement": "Activity", "setting": "[34]", "value": "Non-Toxic"}]}
